ChEMBL document CHEMBL5441142, “Probing the Merck KGaA Open Global health library for novel starting points for anti-schistosomal drug discovery” (2024)
Activity calls are given as the source filed them. The rule behind the calls is not given here.

System: Schistosoma mansoni
Test: In vitro activity screen on S. mansoni schistosomula at 10 uM. Compound-induced effects were assessed by quantifying larva motility and phenotype using Roboworm.
Format: functional, organism-based
Design: test concentration 10 uM, temperature 37 degree C, time incubation 72 h
Conditions: Puerto Rican

Question: For `CC1=C(C(=O)N2CCc3ncc(C(F)(F)F)cc3C2)C2(CCN(C3CCCCC3)CC2)OC1=O`, which In vitro activity is on record?
Answer: inactive

Question: How did the In vitro activity turn out when `COc1cc(C(=O)N(C)C)ccc1-c1cc2nccc(-c3ccc4ccncc4c3)c2o1` was run?
Answer: inactive

Question: How did the In vitro activity turn out when `CC(c1cccc(-c2nnn[nH]2)c1)N(Cc1ccccc1)S(=O)(=O)c1ccc(Cl)cc1` (stereo not given) was run?
Answer: inactive

Question: For `COc1cc([S+]([O-])Cc2ccccc2)ccc1-c1nc2ccncc2[nH]1` (stereo not given), which In vitro activity is on record?
Answer: inactive

Question: Which In vitro activity does the source give for `O=C(O)c1ccc(-c2nc(NCc3ccc4c(c3)OCO4)c3cc(Cl)sc3n2)cc1` here?
Answer: inactive

Question: Which In vitro activity does the source give for `COc1cc(C(=O)Nc2nc(Nc3cccc(C(F)(F)F)c3)n(C)n2)ccc1-n1cnc(C)c1` here?
Answer: inactive

Question: `COc1cc(OC)c(CCNC(=O)c2cn3cc(-c4cc(OCC(=O)NCCO)ccc4OC)nc3s2)c(OC)c1` was tested. Which In vitro activity did it give?
Answer: inactive

Question: With `Cc1nc2c3c(nn2c(C)c1Cl)CN(C(=O)c1ccc(F)cc1OC1C[C@H]2COC[C@H](C1)N2C)C3` (stereo not given in full) as the compound, how does the In vitro activity read?
Answer: inactive

Question: How did the In vitro activity turn out when `C1=C(c2ccccc2)CCN(CCCCc2c[nH]c3ccccc23)C1` was run?
Answer: inactive

Question: With `Cc1cc(C2CCCC2)c(S(C)(=O)=O)cc1C(=O)N=C(N)N` as the compound, how does the In vitro activity read?
Answer: inactive

Question: Which In vitro activity does the source give for `CCNC1=N[C@@H]2[C@@H](O)[C@H](O)[C@@H](Cn3cc(COc4ccc(Cl)cc4)nn3)O[C@@H]2S1` here?
Answer: inactive

Question: For `COCc1cc(-c2nc(-c3cc(F)cc(CN(C)CC(=O)O)c3)no2)ccc1-c1ccccc1C`, which In vitro activity is on record?
Answer: inactive

Question: With `Cc1cc(OC(F)(F)F)c(S(C)(=O)=O)cc1C(=O)N=C(N)N` as the compound, how does the In vitro activity read?
Answer: inactive

Question: Which In vitro activity does the source give for `COc1ccccc1-n1c(=S)[nH]c2scc(C)c2c1=O` here?
Answer: inactive

Question: How did the In vitro activity turn out when `COCc1cc(-c2nc(-c3cccc(CN(C)CC(=O)O)c3)no2)ccc1-c1ccccc1C` was run?
Answer: inactive

Question: Which In vitro activity does the source give for `CCS(=O)(=O)c1cc(C)c(C(=O)N=C(N)N)cc1S(C)(=O)=O` here?
Answer: inactive

Question: Which In vitro activity does the source give for `CCCc1nn(C)c2c(=O)[nH]c(-c3cc(S(=O)(=O)Oc4ccc(=O)n(C)n4)ccc3OCC)nc12` here?
Answer: inactive

Question: How did the In vitro activity turn out when `CCCCCCN(Cc1ccc(C#Cc2ccc(CCCC)cc2)cc1)c1ccc(F)c(C(=O)O)c1` was run?
Answer: inactive

Question: For `CC1=C(C(=O)N2CCc3ccc(C(F)(F)F)cc3C2)C2(CCN(C3CCCCC3)CC2)OC1=O`, which In vitro activity is on record?
Answer: inactive

Question: How did the In vitro activity turn out when `CCC(C)Oc1ccc(-c2nc(-c3cc(F)cc(CN(C)CC(=O)O)c3)no2)cc1COC` (stereo not given) was run?
Answer: inactive

Question: With `CC1(C)Oc2ccc(C#N)cc2[C@@H](n2ccccc2=O)[C@]1(C)O` as the compound, how does the In vitro activity read?
Answer: inactive

Question: How did the In vitro activity turn out when `COc1cc(SC(C)C#N)ccc1-c1nc2ccncc2[nH]1` (stereo not given) was run?
Answer: inactive

Question: With `O=C(O)CCC(=O)OCC1(c2ccc(Cl)cc2)OCC(c2ccccc2)(c2ccccc2)CO1` as the compound, how does the In vitro activity read?
Answer: inactive

Question: How did the In vitro activity turn out when `CSc1cc(C)c(C(=O)N=C(N)N)cc1S(C)(=O)=O` was run?
Answer: inactive

Question: Which In vitro activity does the source give for `CCCN1CCC2(CC1)OC(=O)C(C)=C2C(=O)N1CCc2ncc(C(F)(F)F)cc2C1` here?
Answer: inactive

Question: How did the In vitro activity turn out when `C[C@H]1CCCCN1c1ccc(-c2nc(-c3cccc(CN(C)CC(=O)O)c3)no2)cc1C(F)(F)F` was run?
Answer: inactive

Question: `COCc1cc(-c2nc(-c3ccc(CN(C)CC(=O)O)cc3)no2)ccc1-c1ccccc1C` was tested. Which In vitro activity did it give?
Answer: inactive

Question: How did the In vitro activity turn out when `CCSc1cc(C)c(C(=O)N=C(N)N)cc1S(C)(=O)=O` was run?
Answer: inactive

Question: `COc1cc(S(C)(=O)=O)ccc1-c1nc2ccncc2[nH]1` was tested. Which In vitro activity did it give?
Answer: inactive

Question: `O=C(O)c1ccc2[nH]cc(CCCCN3CC=C(c4ccccc4)CC3)c2c1` was tested. Which In vitro activity did it give?
Answer: inactive

Question: How did the In vitro activity turn out when `C=CCSc1ccc(-c2nc3ccncc3[nH]2)c(OC)c1` was run?
Answer: inactive

Question: Which In vitro activity does the source give for `Cc1cc2c(cc1C(=O)N=C(N)N)S(=O)(=O)C(C)(C)/C2=N\O` here?
Answer: inactive

Question: `COc1ccc(CNc2nc(-c3ccc(C(=O)O)nc3)nc3sc4c(c23)CCCC4)cc1Cl` was tested. Which In vitro activity did it give?
Answer: inactive

Question: `CCN(CCC(=O)O)Cc1cccc(-c2noc(-c3ccc(-c4ccccc4F)c(COC)c3)n2)c1` was tested. Which In vitro activity did it give?
Answer: inactive

Question: `O=C(O)Cc1ccc(-c2nc(NCc3ccc4c(c3)OCO4)c3c4c(sc3n2)CCCC4)cc1` was tested. Which In vitro activity did it give?
Answer: inactive
